Holding throughout (experiment): MIC, broth microdilution (NCCLS)
Format in all cases: cell-based
On the technique in general: In broth dilution the organism is exposed to a series of concentrations in liquid medium.

The subject of assay [1] is Streptococcus pyogenes Stpy_8668. The method, then: (§1) Strains. The bacterial isolates listed in Table 4 were cultivated from −70° C. frozen stocks by two consecutive overnight passages (P1, P2) at 35° C. on 5% blood agar (Remel, Lenexa, Kans.). Chocolate agar (Remel) is used for Haemophilus influenzae. H. influenzae and Streptococcus pneumoniae are incubated in 5-10% CO2
(§2) Drug Stock Preparation. To determine the amount of solvent to be used to give the desired final concentration, the formula “weight obtained in mg/final concentration in mg/ml” will be used. It will give the amount of solvent in ml needed to be added to give the desired concentration. For example, if 2.5 mg/ml is the desired concentration and the weight of compound is 13.7 mg, then the amount of solvent to be added is […]. Methanol is used as the solvent to dissolve the test compounds. Further dilution of stock is done in sterile, deionized water. Drug stocks are kept frozen at −70° C., protected from light.
(§3) Susceptibility Testing. MICs are determined by the broth microdilution method in accordance with the NCCLS guidelines. In brief, organism suspensions are adjusted to a 0.5 McFarland standard to yield a final inoculum between 3×10^5 and 7×10^5 CFU/ml. Drug dilutions and inocula are made in sterile, cation adjusted Mueller-Hinton Broth (CAMHB) (Remel) for all but S. pneumoniae [CAMHB with 2-5% lysed horse blood (Remel)] and H. influenzae [Haemophilus Test Medium (Remel)]. An inoculum volume of 100 μl is added to wells containing 100 μl of broth with 2-fold serial dilutions of drug. All inoculated microdilution trays are incubated in ambient air at 35° C. for 18-24 hours, except for S. pneumoniae, and H. influenzae (both at 5-10% CO2).
(§4) Following appropriate incubation, the MIC is determined and the MIC is defined as the lowest concentration of the drug that prevented visible growth.
(§5) Strains. The bacterial isolates listed in Table 8 were cultivated from −70° C. frozen stocks by two consecutive overnight passages (P1, P2) at 35° C. on 5% blood agar (Remel, Lenexa, Kans.). Chocolate agar (Remel) is used for Haemophilus influenzae. H. influenzae and Streptococcus pneumoniae are incubated in 5-10% CO2
(§6) Following appropriate incubation, the MIC is determined and the MIC is defined as the lowest concentration of the drug that prevented visible growth. […] Antibacterial activity of representative compounds of the invention were compared against telitromycin.

Assay [2] has as its system Streptococcus pneumoniae Stpn_49619. The method, then:
as §1, §2, §3, §4, §5, §6

Assay [3] concerns Streptococcus pneumoniae Stpn_297-749. The procedure:
as §1, §2, §3, §4, §5, §6

Assay [4] relates to Streptococcus pneumoniae Stpn_280-962. The method, then: as §1, §2, §3, §4, §5, §6
Where [5] appears, read: Table 7, Strain ID F (Table 6): S. pneumoniae Stpn_49619.
Setting [6] is: Table 7, Strain ID G (Table 6): S. pneumoniae Stpn_297-749.
Setting [7] is: Table 7, Strain ID H (Table 6): S. pneumoniae Stpn_280-962.
The mark [8] stands for this setting: Table 7, Strain ID E (Table 6): S. pyogenes Stpy_8668.

Each structure is given as a SMILES string.

In US7332476B2, “Pyridyl substituted ketolide antibiotics” (Novartis AG, priority 2003, dated 2008) one finds MIC data, which are given here for ten molecules.

With `CC[C@H]1OC(=O)[C@H](C)[C@@H](O[C@H]2C[C@@](C)(OC)[C@@H](O)[C@H](C)O2)[C@H](C)[C@@H](O[C@@H]2O[C@H](C)C[C@H](N(C)C)[C@H]2O)[C@](C)(OC)C[C@@H](C)C(=O)[C@H](C)[C@@H](O)[C@]1(C)O` [Clar., clarithromycin, reference compound], the MIC entry in assay [1] (Table 5, Strain ID D (Table 4): S. pyogenes Stpy_8668) was “=0.05”; in assay [2] (Table 5, Strain ID E (Table 4): S. pneumoniae Stpn_49619), “=0.05”; in assay [3] (Table 5, Strain ID F (Table 4): S. pneumoniae Stpn_297-749 Pen R) it was “=0.05”; in assay [4] (Table 5, Strain ID G (Table 4): S. pneumoniae Stpn_280-962 Pen S) it was “=0.05”.
Consider `CC[C@H]1OC(=O)[C@@](C)(F)C(=O)[C@H](C)[C@@H](OC2O[C@H](C)C[C@H](N(C)C)[C@H]2O)[C@@](C)(OC)C[C@@H](C)C(=O)[C@H](C)[C@H]2N(CCCCc3ccnc4ccccc34)C(=O)O[C@]12CC` (stereo partly drawn) [Example 17, (3aS,4R,7S,9R,10R,11S,13R,15R,15aR)-3a,4-diethyl-7-fluoro-11-methoxy-7,9,11,13,15-pentamethyl-2,6,8,14-tetraoxo-1-(4-quinolin-4-ylbutyl)tetradecahydro-2H-oxacyclotetradecino[4,3-d][1,3]oxazol-10-yl-3,4,6-trideoxy-3-(dimethylamino)-D-xylo-hexopyranoside], for which the MIC result in assay [2] (setting [5]), in assay [3] (setting [6]) and in assay [4] (setting [7]) was “=0.05” each time.
`CC[C@H]1OC(=O)[C@@](C)(F)C(=O)[C@H](C)[C@@H](OC2O[C@H](C)C[C@H](N(C)C)[C@H]2O)[C@@](C)(OC)C[C@@H](C)C(=O)[C@H](C)[C@H]2N(CCCCc3ccc4ccccc4n3)C(=O)O[C@]12CC` (stereo partly drawn) [Example 19, (3aS,4R,7S,9R,10R,11S,13R,15R,15aR)-3a,4-diethyl-7-fluoro-11-methoxy-7,9,11,13,15-pentamethyl-2,6,8,14-tetraoxo-1-(4-quinolin-2-ylbutyl)tetradecahydro-2H-oxacyclotetradecino[4,3-d][1,3]oxazol-10-yl-3,4,6-trideoxy-3-(dimethylamino)-D-xylo-hexopyranoside]: the MIC entry in assay [2] (setting [5]), in assay [3] (setting [6]) and in assay [4] (setting [7]) was “=0.05” each time.
With `CC[C@H]1OC(=O)[C@H](C)C(=O)[C@H](C)[C@@H](OC2O[C@H](C)C[C@H](N(C)C)[C@H]2O)[C@@](C)(OC)C[C@@H](C)C(=O)[C@H](C)[C@H]2N(CCCCn3cnc(-c4cccnc4)c3C)C(=O)O[C@]12CC` (stereo partly drawn) [Example 21, (3aS,4R,7R,9R,10R,11S,13R,15R,15aR)-3a,4-DIETHYL-11-METHOXY-7,9,11,13,15-PENTAMETHYL-1-[4-(5-METHYL-4-PYRIDIN-3-YL-1H-IMIDAZOL-1-YL)BUTYL]-2,6,8,14-TETRAOXOTETRADECAHYDRO-2H-OXACYCLOTETRADECINO[4,3-D][1,3]OXAZOL-10-YL-3,4,6-TRIDEOXY-3-(DIMETHYLAMINO)-D-XYLO-HEXOPYRANOSIDE], the MIC entry in assay [1] (setting [8]), in assay [2] (setting [5]), in assay [3] (setting [6]) and in assay [4] (setting [7]) was “=0.05” each time.
In the case of `CC[C@H]1OC(=O)[C@H](C)C(=O)[C@H](C)[C@@H](OC2O[C@H](C)C[C@H](N(C)C)[C@H]2O)[C@@](C)(OC)C[C@@H](C)C(=O)[C@H](C)[C@H]2N(CCCCn3cnc4ncccc43)C(=O)O[C@]12CC` (stereo partly drawn) [Example 22, (3aS,4R,7R,9R,10R,11S,13R,15R,15aR)-3a,4-diethyl-1-[4-(1H-imidazo[4,5-b]pyridin-1-yl)butyl]-11-methoxy-7,9,11,13,15-pentamethyl-2,6,8,14-tetraoxotetradecahydro-2H-oxacyclotetradecino[4,3-d][1,3]oxazol-10-yl-3,4,6-trideoxy-3-(dimethylamino)-D-xylo-hexopyranoside], the MIC result in assay [1] (setting [8]), in assay [2] (setting [5]), in assay [3] (setting [6]) and in assay [4] (setting [7]) was “=0.05” in each case.
Take `CC[C@H]1OC(=O)[C@H](C)C(=O)[C@H](C)[C@@H](OC2O[C@H](C)C[C@H](N(C)C)[C@H]2O)[C@@](C)(OC)C[C@@H](C)C(=O)[C@H](C)[C@H]2N(CCN(C)Cc3cccnc3)C(=O)O[C@]12CC` (stereo partly shown) [Example 23]: the MIC entry in assay [1] (setting [8]), in assay [2] (setting [5]), in assay [3] (setting [6]) and in assay [4] (setting [7]) was “=0.05” in each case.
For `CC[C@H]1OC(=O)[C@H](C)C(=O)[C@H](C)[C@@H](OC2O[C@H](C)C[C@H](N(C)C)[C@H]2O)[C@@](C)(OC)C[C@@H](C)C(=O)[C@H](C)[C@H]2N(CCCCn3cnc(-c4cncnc4)c3)C(=O)O[C@]12CC` (stereo partly drawn) [Example 25, (3aS,4R,7R,9R,10R,11S,13R,15R,15aR)-3a,4-diethyl-11-methoxy-7,9,11,13,15-pentamethyl-2,6,8,14-tetraoxo-1-[4-(4-pyrimidin-5-yl-1H-imidazol-1-yl)butyl]tetradecahydro-2H-oxacyclotetradecino[4,3-d][1,3]oxazol-10-yl-3,4,6-trideoxy-3-(dimethylamino)-D-xylo-hexopyranoside], the MIC result in assay [1] (setting [8]), in assay [2] (setting [5]), in assay [3] (setting [6]) and in assay [4] (setting [7]) was “=0.05” in each case.
As to `CC[C@H]1OC(=O)[C@@](C)(F)C(=O)[C@H](C)[C@@H](OC2O[C@H](C)C[C@H](N(C)C)[C@H]2O)[C@@](C)(OC)C[C@@H](C)C(=O)[C@H](C)[C@H]2N(CCCCn3cnc4ncccc43)C(=O)O[C@]12CC` (stereo partly drawn) [Example 27, (3aS,4R,7S,9R,10R,11S,13R,15R,15aR)-3a,4-diethyl-7-fluoro-1-[4-(1H-imidazo[4,5-b]pyridin-1-yl)butyl]-11-methoxy-7,9,11,13,15-pentamethyl-2,6,8,14-tetraoxotetradecahydro-2H-oxacyclotetradecino[4,3-d][1,3]oxazol-10-yl-3,4,6-trideoxy-3-(dimethylamino)-D-xylo-hexopyranoside], the MIC result in assay [1] (setting [8]), in assay [3] (setting [6]) and in assay [4] (setting [7]) was “=0.025” each time.
For the molecule `CC[C@H]1OC(=O)[C@H](C)C(=O)[C@H](C)[C@@H](OC2O[C@H](C)C[C@H](N(C)C)[C@H]2O)[C@@](C)(OC)C[C@@H](C)C(=O)[C@H](C)[C@H]2N(CCCCn3cnc(-c4ccncc4)c3)C(=O)O[C@]12CC` (stereo partly drawn) [Example 28, (3aS,4R,7R,9R,10R,11S,13R,15R,15aR)-3a,4-DIETHYL-11-METHOXY-7,9,11,13,15-PENTAMETHYL-2,6,8,14-TETRAOXO-1-[4-(4-PYRIDIN-4-YL-1H-IMIDAZOL-1-YL)BUTYL]TETRADECAHYDRO-1H-OXACYCLOTETRADECINO[4,3-D][1,3]OXAZOL-10-YL-3,4,6-TRIDEOXY-3-(DIMETHYLAMINO)-D-XYLO-HEXOPYRANOSIDE], the MIC result in assay [1] (setting [8]), in assay [2] (setting [5]), in assay [3] (setting [6]) and in assay [4] (setting [7]) was “=0.05” each time.
As to `CC[C@H]1OC(=O)[C@H](C)C(=O)[C@H](C)[C@@H](OC2O[C@H](C)C[C@H](N(C)C)[C@H]2O)[C@@](C)(OC)C[C@@H](C)C(=O)[C@H](C)[C@H]2N(CCCCn3cnc(-c4ccc(C)nc4)c3)C(=O)O[C@]12CC` (stereo partly drawn) [Example 29, (3aS,4R,7R,9R,10R,11S,13R,15R,15aR)-3a,4-diethyl-11-methoxy-7,9,11,13,15-pentamethyl-1-{4-[4-(6-methylpyridin-3-yl)-1H-imidazol-1-yl]butyl}-2,6,8,14-tetraoxotetradecahydro-2H-oxacyclotetradecino[4,3-d][1,3]oxazol-10-yl-3,4,6-trideoxy-3-(dimethylamino)-D-xylo-hexopyranoside], the MIC entry in assay [1] (setting [8]), in assay [2] (setting [5]), in assay [3] (setting [6]) and in assay [4] (setting [7]) was “=0.05” throughout.
